In patent publication US7122328B2, “Gene involved in mineral deposition and uses thereof” (The Board of Trustees of the Leland Stanford Junior …, priority 2000, dated 2006) one finds extracellular pyrophosphate levels and intracellular pyrophosphate levels data, which are given here for one substance.

The assay deals with COS cells. Put plainly: Intracellular/extracellular pyrophosphate levels in transfected COS cells. Format: cell-based. The settings on record: overexpression in tissue culture cells. An excerpt: Several protocols have previously been developed for measuring inorganic pyrophosphate in biological samples and any number of these are used in the in vitro assay. Some measure pyrophosphate hydrolysis to orthophosphate by calorimetry (McCarty et al., J. Lab. Clin. Med., 78:216–29 (1971)), while others use labeled substrates that couple with pyrophosphate in enzymatic reactions to determine pyrophosphate levels radiometrically (Cheung and Suhadolnik, Anal. Biochem., 83:61–3 (1977); Caswell and Russell, Biochim. Biophys. Acta, 847:40–7 (1985)). In another type of protocols, inorganic pyrophosphate is subjected to a series of coupled enzymatic phosphorylation and reduction to yield NADPH which can be quantified flourimetrically (Lust and Seegmiller, Clin. Chim. Acta, 66:241–9 (1976)). Although each of these can be used in the assay, the latter protocol is used with described modifications as follows.
COS cells grown in DMEM supplemented with 10% fetal bovine serum, 2 mM GlutaMax (Gibco), 0.1 mM non-essential amino acids, 100 units/ml Penicillin G, and 100 μg/ml Streptomycin are harvested and ˜1–2×10^6 cells are plated on a 100 mm tissue culture dish and incubated overnight at 37° C., 5% CO2. […]

With “wild type ANK gene product: wild type ANK protein overexpressed in tissue culture cells; multiple-pass integral membrane protein of 492 amino acids”, the extracellular pyrophosphate levels entry is “increase” and the intracellular pyrophosphate levels result was “dramatic reduction”.
